Measured values: patent US7521439B2, “Glucocorticoid receptor ligands for the treatment of metabolic disorders” (Karo Bio AB, priority 2002, dated 2009)
Read-outs that look alike come from different tables or passages of the source.

Tests used:
[1] = molecular target: T1, Human glucocorticoid receptors (hGR) (Homo sapiens, UniProt P04150); test: Radioligand filter binding assay, displacement of 3(H)-dexamethasone from human glucocorticoid receptor
T1 construct: made in house; host or cells: Sf9 insect cells, baculovirus (BAC-TO-BAC)
T1 sequence (P04150 1-777): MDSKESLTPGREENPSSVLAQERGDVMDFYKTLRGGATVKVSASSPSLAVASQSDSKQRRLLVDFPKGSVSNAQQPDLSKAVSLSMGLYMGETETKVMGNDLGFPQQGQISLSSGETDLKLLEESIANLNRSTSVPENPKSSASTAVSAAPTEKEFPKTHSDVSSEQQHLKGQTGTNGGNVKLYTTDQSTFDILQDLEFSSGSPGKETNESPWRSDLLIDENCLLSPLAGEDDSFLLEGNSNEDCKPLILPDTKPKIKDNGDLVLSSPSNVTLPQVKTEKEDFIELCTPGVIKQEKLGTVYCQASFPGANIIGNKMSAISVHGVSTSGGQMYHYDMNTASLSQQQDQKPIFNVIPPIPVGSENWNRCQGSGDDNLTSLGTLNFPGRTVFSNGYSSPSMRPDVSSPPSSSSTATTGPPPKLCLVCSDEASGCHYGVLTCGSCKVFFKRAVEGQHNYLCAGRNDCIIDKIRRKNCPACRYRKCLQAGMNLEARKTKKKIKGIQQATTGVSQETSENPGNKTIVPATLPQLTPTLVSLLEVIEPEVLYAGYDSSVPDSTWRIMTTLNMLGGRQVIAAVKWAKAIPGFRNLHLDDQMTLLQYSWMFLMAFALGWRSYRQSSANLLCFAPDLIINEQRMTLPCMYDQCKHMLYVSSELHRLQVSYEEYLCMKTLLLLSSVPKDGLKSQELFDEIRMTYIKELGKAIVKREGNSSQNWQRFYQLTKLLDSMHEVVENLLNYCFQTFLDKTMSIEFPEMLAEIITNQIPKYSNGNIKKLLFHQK
Source text: Methods for Radioligand Binding Studies with Human Glucocorticoid and Progesterone Receptor Cytosol
Dexamethasone hereafter referred to as dex was purchased from SIGMA. […] Human glucocorticoid receptors were extracted from Sf9 cells infected with a recombinant baculovirus transfer vector containing the cloned hGR genes. Recombinant baculovirus was generated utilizing the BAC-TO-BAC expression system (Life Technologies) in accordance to instruction from the supplier. The hGR coding sequences were cloned into a baculovirus transfer vector by standard techniques. The recombinant baculoviruses expressing hGR were amplified and used to infect Sf9 cells. Infected cells were harvested 48 hrs post infection. […] The concentration of hGR in the extract was measured as specific ^3(H)-dex binding with the G25-assay as described in J. Steroid Biochem. Molec. […] The extract was aliquoted and stored at −70° C.
The filter binding assay: Dilution series of the test compounds and dexamethasone as reference were made from 10 mM (1 mM dex) stock solutions in DMSO. 10 μl of the dilutions was added in duplicates to the wells. The cell extracts were diluted 10 fold in EPMo+MTG buffer (1 mM EDTA, HPO4 20 mM (pH8), 6 mM MTG). […] 110μl of the diluted ^3(H)-dex were added to the wells. The final concentration of hGR in the experiment was estimated to 1 nM. All preparations were made in […] on ice and with +4° C. temperated buffers. The plates were incubated overnight at +4° C. (15-20 hrs.).
The incubation was stopped by filtration through GF/B filter on the Tomtec Cellharvester. The filtration on the Tomtec Cellharvester was programmed as follows: 1) Preparation before filtration with EP buffer (1 mM EDTA 20 mM HPO4 (pH8)) 2×(Wash/Asp 0.6 sec., Asp 0.5 sec.); 2) Prewet of GF/B filter with EP+PEI buffer (EP buffer, 0.3% Polyethylenimine) (Asp 0.8 sec.); 3) Filtration/harvesting of the 96-well incubation plate 3×(Wash/Asp 0.6 sec., Asp 0.5 sec.). The GF/B filter was dried for at least 1 hr at 65° C. A MeltiLex scintillation wax was melted onto the filter with the Microsealer. The filter was placed in a samplebag, which was thereafter trimmed with scissors to fit the filter cassette. The cassette were placed in the Microbeta and measured for 1 min/position, returning ccpm (corrected counts per minute).
The Microbeta-instrument generates the mean cpm (counts per minute) value/minute and corrects for individual variations between the detectors thus generating corrected cpm values.

[2] = molecular target: T2, progesterone receptor (PR) (Homo sapiens, UniProt P06401); test: Radioligand binding assay for progesterone receptor (similar protocol); conditions: similar protocol to GR binding
T2 sequence (P06401 1-933): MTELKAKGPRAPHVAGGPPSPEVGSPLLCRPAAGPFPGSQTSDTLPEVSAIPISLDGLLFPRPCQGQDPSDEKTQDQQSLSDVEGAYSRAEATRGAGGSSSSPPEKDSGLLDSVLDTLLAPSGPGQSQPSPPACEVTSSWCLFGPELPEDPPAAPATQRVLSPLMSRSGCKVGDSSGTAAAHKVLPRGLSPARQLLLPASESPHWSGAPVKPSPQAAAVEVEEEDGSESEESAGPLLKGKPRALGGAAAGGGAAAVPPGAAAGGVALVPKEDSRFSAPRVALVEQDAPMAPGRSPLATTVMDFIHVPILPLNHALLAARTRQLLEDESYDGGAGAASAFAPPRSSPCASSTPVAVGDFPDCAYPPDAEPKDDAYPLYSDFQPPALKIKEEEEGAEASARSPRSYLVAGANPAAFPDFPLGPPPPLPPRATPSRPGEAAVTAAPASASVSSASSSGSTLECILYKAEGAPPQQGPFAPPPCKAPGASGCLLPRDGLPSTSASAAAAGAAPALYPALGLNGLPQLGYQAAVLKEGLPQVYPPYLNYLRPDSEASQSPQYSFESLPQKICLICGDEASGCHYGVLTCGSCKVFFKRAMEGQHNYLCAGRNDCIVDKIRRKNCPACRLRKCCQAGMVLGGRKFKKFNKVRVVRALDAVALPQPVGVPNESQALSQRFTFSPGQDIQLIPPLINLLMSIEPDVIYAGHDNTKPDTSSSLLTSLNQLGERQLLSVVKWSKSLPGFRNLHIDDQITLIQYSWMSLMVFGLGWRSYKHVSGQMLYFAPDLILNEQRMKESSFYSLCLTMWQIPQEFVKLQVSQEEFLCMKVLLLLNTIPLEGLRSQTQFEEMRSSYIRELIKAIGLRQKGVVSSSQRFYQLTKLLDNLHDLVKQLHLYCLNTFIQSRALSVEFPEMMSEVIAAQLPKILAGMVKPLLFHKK
Source text: Methods for Radioligand Binding Studies with Human Glucocorticoid and Progesterone Receptor Cytosol A similar protocol was employed to measure affinity of the compounds of the present invention for progesterone receptor (PR).

GR-mediated responses = test: Rat prednisolone challenge model (hepatic TAT, hepatic glycogen, blood lymphocytes); type: in vivo; conditions: for inhibition at 100 mg/kg: Rattus norvegicus, Lymphocyte, po, 100 mpk orally in rats, prednisolone challenge
Source text: The analysis of both in vivo activity and liver selectivity may be accomplished using a single pharmacology study, involving a prednisolone challenge administered to rats.
Systemic glucocorticoid activity leads to an anti-inflammatory response, which is the result of a GR-linked suppression of lymphocytic activity.
Rat Prednisolone Challenge Model for Evaluation of Liver-Targeted Glucocorticoid Receptor Antagonists
Six hours following the prednisolone challenge, rats are euthanized with CO2, and bled via cardiac puncture for evaluation of blood lymphocytes and plasma drug levels. 7 mm liver biopsy punches are harvested for evaluation of tyrosine aminotransferase (TAT), hepatic glycogen and GR antagonist levels. Additional liver tissue, retroperitoneal fat, skeletal muscle, kidney and skin from an ear biopsy are also removed for isolation an evaluation of mRNA.

HPA axis = test: Mouse hypothalamic-pituitary-adrenal (HPA) activation model; type: in vivo; conditions: for circulating level of ACTH / circulating level of corticosterone: oral dose, normal mice (FIG. 3)
Source text: Hypothalamic stimulation triggered by a suppressed systemic glucocorticoid leads to the secretion of adrenocorticotrophic hormone (ACTH) by the pituitary gland. ACTH acts on the adrenal gland to stimulate the production of endogenous glucorticoids like cortisol (in man) or corticosterone (in rodents). […] Analogs like Compound 1 may thus have an improved efficacy and safety profile for the treatment of metabolic diseases like diabetes and obesity.
Mouse Hypothalamic-Pituitary-Adrenal (HPA) Activation Model
Non-fasted CD-1 male mice, weighing approximately 25 g, are dosed with vehicle, RU-486 (30-100 mg/kg), or GR antagonist (30-100 mg/kg) at 0800 hr when corticosterone levels are low. Two hours later, mice are euthanized with CO2, bled by cardiac puncture, and plasma analyzed for corticosterone by mass spectroscopy and for adrenocorticotropic hormone (ACTH) levels by ELISA. Brains and plasma are also removed for analysis of GR antagonist levels.

[3] = read-out: Inhibition of GR-mediated responses: Glycogen
[4] = read-out: Inhibition of GR-mediated responses: Lymphocytes
[5] = read-out: Inhibition of GR-mediated responses: TAT
[6] = 10 mpk prednisolone, normal rats, 7-hour experiment
[7] = 30 mpk orally, rat prednisolone challenge
[8] = rat prednisolone challenge, 100 mpk
[9] = 100 mpk, CD-1 male mice, two hours after dosing

Row | SMILES | IC50 [1] | IC50 [2] | inhibition at 100 mg/kg (GR-mediated responses; [3]) | inhibition at 100 mg/kg (GR-mediated responses; [4]) | inhibition at 100 mg/kg (GR-mediated responses; [5]) | circulating level of ACTH (HPA axis) | circulating level of corticosterone (HPA axis) | other results
1 | CC#C[C@]1(O)CC[C@H]2[C@@H]3CCC4=CC(=O)CCC4=C3[C@@H](c3ccc(N(C)CCO[C@H]4CC[C@@]5(C)[C@@H](C4)C[C@@H](O)[C@@H]4[C@@H]5C[C@H](O)[C@]5(C)[C@@H]([C@H](C)CCC(=O)O)CC[C@@H]45)cc3)C[C@@]21C [Example 1, (3β,5β,7α,12α)-7,12-Dihydroxy-3-{2-[{4-[17β-hydroxy-3-oxo-17α-prop-1-ynylestra-4,9-dien-11β-yl]phenyl}(methyl)amino]ethoxy}cholan-24-oic acid] | 3.6 nM | 8.7 nM | 111% | 35% | 85% | lack of change | lack of change | selectivity for hepatic GR vs. systemic effects (GR-mediated responses; rat prednisolone challenge, doses as in Table I): liver-selective pharmacology; stimulation of the HPA axis (HPA axis; mice, dose similar to RU-38486 (FIG. 3)): fails to stimulate
2 | CC#C[C@]1(O)CC[C@H]2[C@@H]3CCC4=CC(=O)CCC4=C3[C@@H](c3ccc(OCCO[C@H]4CC[C@@]5(C)C(C4)C[C@@H](O)[C@H]4[C@@H]6CC[C@H]([C@H](C)CCC(=O)O)[C@@]6(C)[C@@H](O)C[C@@H]45)c(C)c3)C[C@@]21C (stereo partly drawn) [Example 2, (3β,7α,12α)-7,12-dihydroxy-3-(2-(4-(17β-hydroxy-3-oxo-17α-prop-1-ynylestra-4,9-dien-11β-yl)-2-methylphenoxy)ethoxy)cholan-24-oic acid] | 2.8 nM | 2.3 nM |  |  |  |  |  | 
3 | CC#C[C@]1(O)[C@H](C)C[C@H]2[C@@H]3CCC4=CC(=O)CCC4=C3[C@@H](c3ccc(N(C)CCO[C@H]4CC[C@@]5(C)[C@@H](C4)C[C@@H](O)[C@@H]4[C@@H]5C[C@H](O)[C@]5(C)[C@@H]([C@H](C)CCC(=O)O)CC[C@@H]45)cc3)C[C@@]21C [Example 4, (3β,5β,7α,12α)-7,12-Dihydroxy-3-{2-[{4-[17β-hydroxy-16α-methyl-3-oxo17α-prop-1-ynylestra-4,9-dien-11β-yl]phenyl}(methyl)amino]ethoxy}cholan-24-oic acid] |  | 1.6 nM |  |  |  |  |  | IC50 ([1]; 3(H)-dex displacement, hGR extract from Sf9 cells, read-out: GR Binding (IC50)): 3.3 nM
4 | C[C@]12C=CC(=O)C=C1CC[C@@H]1[C@@H]2[C@@H](O)C[C@@]2(C)[C@H]1CC[C@]2(O)C(=O)CO [prednisolone] |  |  |  |  |  |  |  | circulating lymphocyte levels (GR-mediated responses; 10 mpk prednisolone, normal rats): decrease; increase in the deposition of hepatic glycogen (GR-mediated responses; [6]): ~60%; induction of tyrosine aminotransferase (TAT) (GR-mediated responses; [6]): 3 fold
5 | CC#C[C@]1(O)CC[C@H]2[C@@H]3CCC4=CC(=O)CCC4=C3[C@@H](c3ccc(N(C)CCO[C@H]4CC[C@@]5(C)[C@@H](C4)C[C@@H](O)[C@@H]4[C@@H]5C[C@H](O)[C@]5(C)[C@@H]([C@H](C)CCC(=O)O)CC[C@@H]45)c(F)c3)C[C@@]21C [Example 3, (3β,5β,7α,12α)-7,12-dihydroxy-3-{2-[{4-[17β-hydroxy-3-oxo-17α-prop-1-ynylestra-4,9-dien-11β-yl]-2-fluorophenyl}(methyl)amino]ethoxy}cholan-24-oic acid] | 2 nM | 4.5 nM |  |  |  |  |  | 
6 | CC#C[C@]1(O)CC[C@H]2[C@@H]3CCC4=CC(=O)CCC4=C3[C@@H](c3ccc(N(C)C)cc3)C[C@@]21C [RU-38486] |  |  | 74% | 108% | 100% | increases | increases | block of agonist effect on TAT induction (GR-mediated responses; [7]): completely blocks; block of lymphopenic response produced by prednisolone (GR-mediated responses; [7]): ability to block; suppression of prednisolone-induced deposition of hepatic glycogen (GR-mediated responses; [7]): completely suppressed; block of hepatic glucocorticoid responses to prednisolone (TAT, glycogen) (GR-mediated responses; [8]): completely antagonizes; effect on systemic (peripheral) glucocorticoid response to prednisolone (GR-mediated responses; [8]): completely antagonizes; ACTH level compared to vehicle controls (HPA axis; [9]): significantly increases; corticosterone level compared to vehicle controls (HPA axis; [9]): significantly increases
